Article PMC10135272, “Synthesis, Molecular Docking Study, and Biological Evaluation of New 4-(2,5-Dimethyl-1H-pyrrol-1-yl)-N’-(2-(substituted)acetyl)benzohydrazides as Dual Enoyl ACP Reductase and DHFR Enzyme Inhibitors” (Antibiotics, 2023)
≈ marks a conversion by molar mass, not a printed value. Read-outs that look alike come from different tables or passages of the source.

How the values were obtained:
[1] = test system: A549 (lung adenocarcinoma) cell lines; assay: MTT-based cytotoxicity; assay type: cell-based, human
Procedure: (§1) Cellular conversion of MTT (3-(4,5-dimethylthiazo-2-yl)-2,5-diphenyl-tetrazolium bromide) into a formazan product was performed to evaluate the cytotoxic activity (IC50) of some of the compounds against A549 (lung adenocarcinoma) MV cell lines up to a concentration of […] using a Promega Cell Titer 96 non-radioactive cell proliferation assay with cisplatin as the positive control. The IC50 values given in Table 6 are the averages ± SEM of three independent measurements.

[2] = test system: Mammalian Vero cell lines (MV cell lines); assay: MTT-based cytotoxicity; assay type: cell-based
Procedure: as §1

S. aureus (Gram +ve) = assay: Antibacterial activity, broth microdilution; assay type: cell-based; details: Staphylococcus aureus
MtDHFR = MtDHFR (Mycobacterium tuberculosis, UniProt P9WNX1); assay: biochemical; assay type: biochemical; details: for MtDHFR inhibitory activity (in words): in vitro assay
M. tuberculosis H37Rv = assay: Antitubercular activity, Microplate Alamar Blue assay (MABA); assay type: cell-based; details: Mycobacterium tuberculosis, average of triplicate tests
E. coli (Gram −ve) = assay: Antibacterial activity, broth microdilution; assay type: cell-based; details: Escherichia coli
MTT-based cytotoxicity [3] = assay type: cell-based, human; details: human; MTT assay, A549 lung adenocarcinoma, means ± SEM of three independent experiments
Procedure: as §1

[4] = target: InhA (enoyl ACP reductase) (Mycobacterium tuberculosis, UniProt P9WGR1); assay: Enoyl ACP reductase (InhA) inhibition; assay type: biochemical; details: for enoyl ACP reductase inhibitory activity (in words): in vitro assay
MTT-based cytotoxicity [5] = assay type: cell-based; details: African green monkey; MTT assay, Mammalian Vero cell lines, means ± SEM of three independent experiments; read-out: IC50 MV Cell Lines (cytotoxicity)
Procedure: as §1

Sequence of MtDHFR (P9WNX1 whole entry): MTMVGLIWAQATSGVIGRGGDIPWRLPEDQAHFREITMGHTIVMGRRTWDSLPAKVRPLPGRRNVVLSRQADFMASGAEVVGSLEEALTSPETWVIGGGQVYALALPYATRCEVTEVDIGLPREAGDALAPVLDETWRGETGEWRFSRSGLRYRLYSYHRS
Sequence of InhA (enoyl ACP reductase) (P9WGR1 whole entry, looked up): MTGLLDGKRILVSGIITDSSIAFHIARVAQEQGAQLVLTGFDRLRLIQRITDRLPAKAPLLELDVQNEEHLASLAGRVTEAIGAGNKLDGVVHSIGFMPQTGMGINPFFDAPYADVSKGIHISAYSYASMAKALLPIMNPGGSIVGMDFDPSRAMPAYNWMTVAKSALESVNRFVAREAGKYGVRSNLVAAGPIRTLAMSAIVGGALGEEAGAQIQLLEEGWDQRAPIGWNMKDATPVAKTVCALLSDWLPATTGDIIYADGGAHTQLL

Row | SMILES | IC50 [1] | IC50 [2] | MIC (S. aureus (Gram +ve)) | IC50 (MtDHFR) | MIC (M. tuberculosis H37Rv) | MIC (E. coli (Gram −ve)) | IC50 (MTT-based cytotoxicity [3]) | inhibition at 50 µM [4] | IC50 (MTT-based cytotoxicity [5]) | enoyl ACP reductase inhibitory activity (in words) [4] | MtDHFR inhibitory activity (in words) (MtDHFR)
1 | NNC(=O)c1ccncc1 [INH, reference compound] | > 450 µM | > 450 µM | – | – | – | – | – | – | – | – | –
2 | Cc1ccc(C)n1-c1ccc(C(=O)NNC(=O)Cc2cccc(Cl)c2)cc1 [Compound 5h, N′-(2-(3-Chlorophenyl)acetyl)-4-(2,5-dimethyl-1H-pyrrol-1-yl)benzohydrazide] | – | – | 6.25 µg/mL (≈ 16.4 µM) | 30 µM | 3.25 µg/mL (≈ 8.51 µM) | 50 µg/mL (≈ 131 µM) | – | – | – | – | –
3 | Cc1ccc(C)n1-c1ccc(C(=O)NNC(=O)Cc2ccc([N+](=O)[O-])cc2)cc1 [Compound 5n, 4-(2,5-Dimethyl-1H-pyrrol-1-yl)-N′-(2-(4-nitrophenyl)acetyl)benzohydrazide] | – | – | 12.5 µg/mL (≈ 31.9 µM) | 15 µM | 1.6 µg/mL (≈ 4.08 µM) | 50 µg/mL (≈ 127 µM) | – | – | – | – | –
4 | Cc1ccc(C)n1-c1ccc(C(=O)NNC(=O)Cc2ccc(O)cc2)cc1 [Compound 5l, 4-(2,5-Dimethyl-1H-pyrrol-1-yl)-N′-(2-(4-hydroxyphenyl)acetyl)benzohydrazide] | – | – | 6.25 µg/mL (≈ 17.2 µM) | 30 µM | 3.25 µg/mL (≈ 8.94 µM) | 50 µg/mL (≈ 138 µM) | – | – | – | – | –
5 | COc1ccccc1CC(=O)NNC(=O)c1ccc(-n2c(C)ccc2C)cc1 [Compound 5e, 4-(2,5-Dimethyl-1H-pyrrol-1-yl)-N′-(2-(2-methoxyphenyl)acetyl)benzohydrazide] | – | – | 6.25 µg/mL (≈ 16.6 µM) | 78 µM | 6.25 µg/mL (≈ 16.6 µM) | 100 µg/mL (≈ 265 µM) | – | – | – | – | –
6 | Cc1ccc(CC(=O)NNC(=O)c2ccc(-n3c(C)ccc3C)cc2)cc1 [Compound 5c, 4-(2,5-Dimethyl-1H-pyrrol-1-yl)-N′-(2-(p-tolyl)acetyl)benzohydrazide] | – | – | 3.12 µg/mL (≈ 8.63 µM) | 118 µM | 25 µg/mL (≈ 69.2 µM) | 50 µg/mL (≈ 138 µM) | 219 ± 0.7 µM | 20% | 221 ± 0.8 µM | – | –
7 | Cc1ccc(C)n1-c1ccc(C(=O)NNC(=O)Cc2ccc(F)cc2)cc1 [Compound 5k, 4-(2,5-Dimethyl-1H-pyrrol-1-yl)-N′-(2-(4-flurophenyl)acetyl)benzohydrazide] | – | – | 1.6 µg/mL (≈ 4.38 µM) | 10 µM | 0.8 µg/mL (≈ 2.19 µM) | 50 µg/mL (≈ 137 µM) | 219 ± 0.4 µM | 88% | 221 ± 0.3 µM | promising enzyme inhibitory activity | promising enzyme inhibitory activity
8 | Cc1ccc(C)n1-c1ccc(C(=O)NNC(=O)Cc2ccccc2Br)cc1 [Compound 5j, N′-(2-(2-Bromophenyl)acetyl)-4-(2,5-dimethyl-1H-pyrrol-1-yl)benzohydrazide] | – | – | 6.25 µg/mL (≈ 14.7 µM) | 15 µM | 1.6 µg/mL (≈ 3.75 µM) | 50 µg/mL (≈ 117 µM) | – | – | – | – | –
9 | Cc1ccc(C)n1-c1ccc(C(=O)NNC(=O)Cc2ccccc2)cc1 [Compound 5a, 4-(2,5-Dimethyl-1H-pyrrol-1-yl)-N′-(2-phenylacetyl)benzohydrazide] | – | – | 50 µg/mL (≈ 144 µM) | 146 µM | 25 µg/mL (≈ 72 µM) | 50 µg/mL (≈ 144 µM) | – | – | – | – | –
10 | NC(=O)c1cnccn1 [Pyrazinamide, reference compound] | – | – | – | – | 3.12 µg/mL (≈ 25.4 µM) | – | – | – | – | – | –
11 | Cc1ccc(C)n1-c1ccc(C(=O)NNC(=O)Cc2ccc(Cl)cc2)cc1 [Compound 5f, N′-(2-(4-Chlorophenyl)acetyl)-4-(2,5-dimethyl-1H-pyrrol-1-yl)benzohydrazide] | – | – | 1.6 µg/mL (≈ 4.19 µM) | 25 µM | 1.6 µg/mL (≈ 4.19 µM) | 50 µg/mL (≈ 131 µM) | 216 ± 0.5 µM | 76% | 215 ± 0.2 µM | promising enzyme inhibitory activity | promising enzyme inhibitory activity
12 | COc1ccc(CC(=O)NNC(=O)c2ccc(-n3c(C)ccc3C)cc2)cc1 [Compound 5d, 4-(2,5-Dimethyl-1H-pyrrol-1-yl)-N′-(2-(4-methoxyphenyl)acetyl)benzohydrazide] | – | – | 3.12 µg/mL (≈ 8.27 µM) | 85 µM | 3.25 µg/mL (≈ 8.61 µM) | 100 µg/mL (≈ 265 µM) | 214 ± 0.2 µM | 32% | 214 ± 0.6 µM | – | –
13 | Cc1ccccc1CC(=O)NNC(=O)c1ccc(-n2c(C)ccc2C)cc1 [Compound 5b, 4-(2,5-Dimethyl-1H-pyrrol-1-yl)-N′-(2-(o-tolyl)acetyl)benzohydrazide] | – | – | 0.8 µg/mL (≈ 2.21 µM) | 125 µM | 25 µg/mL (≈ 69.2 µM) | 50 µg/mL (≈ 138 µM) | – | – | – | – | –
14 | Cc1ccc(C)n1-c1ccc(C(=O)NNC(=O)Cc2ccc(Br)cc2)cc1 [Compound 5i, N′-(2-(4-Bromophenyl)acetyl)-4-(2,5-dimethyl-1H-pyrrol-1-yl)benzohydrazide] | – | – | 6.25 µg/mL (≈ 14.7 µM) | 18 µM | 1.6 µg/mL (≈ 3.75 µM) | 50 µg/mL (≈ 117 µM) | 214 ± 0.4 µM | 72% | 218 ± 0.3 µM | promising enzyme inhibitory activity | promising enzyme inhibitory activity
15 | Cc1ccc(C)n1-c1ccc(C(=O)NNC(=O)Cc2cccc(Br)c2)cc1 [Compound 5m, 4-(2,5-Dimethyl-1H-pyrrol-1-yl)-N′-(2-(3-bromophenyl)acetyl)benzohydrazide] | – | – | 12.5 µg/mL (≈ 29.3 µM) | 18 µM | 3.25 µg/mL (≈ 7.62 µM) | 50 µg/mL (≈ 117 µM) | – | – | – | – | –
16 | [H]/N=C(/N)N[C@H]1[C@H](O)[C@@H](O)[C@H](O[C@@H]2O[C@@H](C)[C@](O)(C=O)[C@H]2O[C@@H]2O[C@@H](CO)[C@H](O)[C@@H](O)[C@@H]2NC)[C@@H](N/C(N)=N\[H])[C@@H]1O [Streptomycin, reference compound] | – | – | – | – | 6.25 µg/mL (≈ 10.7 µM) | – | – | – | – | – | –
17 | Cc1ccc(C)n1-c1ccc(C(=O)NNC(=O)Cc2ccccc2Cl)cc1 [Compound 5g, N′-(2-(2-Chlorophenyl)acetyl)-4-(2,5-dimethyl-1H-pyrrol-1-yl)benzohydrazide] | – | – | 3.12 µg/mL (≈ 8.17 µM) | 26 µM | 3.25 µg/mL (≈ 8.51 µM) | 50 µg/mL (≈ 131 µM) | – | – | – | – | –
18 | O=C(O)c1cn(C2CC2)c2cc(N3CCNCC3)c(F)cc2c1=O [Ciprofloxacin, reference compound] | – | – | 2 µg/mL (≈ 6.04 µM) | – | – | 2 µg/mL (≈ 6.04 µM) | – | – | – | – | –
